pIC50: −log10 of the molar value.
Tests used:
[1] = target: T1, human Siiyama A1AT (Homo sapiens, UniProt P01009, S77F); assay: A1AT cell secretion assay using HEK-Siiyama cells (ELISA); format: cell-based; details: 1 or 10 μM, 48 h
T1 construct: expressed in transfected cells; host or cells: HEK-Siiyama cells (HEK-EBNA with Siiyama A1AT plasmid)
Description: HEK-Siiyama cells, a human embryonic kidney cell line stably transfected with the Siiyama A1AT gene, were plated into 96 well plates (3.0×10^5 cells/ml with 200 μl of media/well) overnight at 37° C. in a humidified atmosphere containing 5% CO2. Following incubation cells were washed with 200 μl serum-free media three times and media was replaced with serum-free media containing vehicle, 10 μM suberanilohydroxamic acid (SAHA), (S)-1-((2-(trifluoromethyl)phenyl)sulfonyl)piperidine-3-carboxylic acid (at 1 or 10 μM) or (R)-1-((2-(trifluoromethyl)phenyl)sulfonyl)piperidine-3-carboxylic acid (at 1 or 10 μM) in replicates of eight for 48 h in a 37° C. incubator in a final volume of 200 μl. At the end of the incubation step the supernatants were removed from the wells, centrifuged at 1000×g at 4° C. for 10 min and were assayed for human A1AT levels by ELISA (Human Serpin A1/α1-antitrypsin duo set ELISA, R& D Systems, DY1268) per manufacturer's instructions.
Briefly, a 96 well plate was coated with human A1AT capture antibody overnight at room temperature (1:180 dilution from stock, 100 μl final volume/well). The capture antibody was then removed and wells washed three times with 300 μl wash buffer (0.05% Tween 20 in PBS) and then 200 μl reagent diluent (25% Tween 20 in PBS) was incubated in each well for 1 h at room temperature. Diluted samples, standards (125, 250, 500, 1000, 2000, 4000 and 8000 pg/ml A1AT) or blanks were then added to each well in duplicate and the plates were covered with a plate sealer and left at room temperature for 2 h. […] After which, 50 μl stop solution (2M H2SO4) was added and optical density (OD) of each well was read at 450 nm with 570 nm blank subtracted from each well using a microplate reader. A 4 parameter logistic curve was constructed using GraphPad Prism 7 and A1AT concentrations were determined in each sample by interpolation from a standard curve and multiplying by the appropriate dilution factor.
The amount of human A1AT secreted from transfected HEK-EBNA cells into the media was measured by ELISA. […]

[2] = Pharmacokinetics in mice (blood, UPLC-MS/MS); format: in vivo, mouse; details: for Cmax / AUC / AUC(0-inf) / half-life / clearance / Vd: mouse, whole blood, male C57Bl/6 mice, blood; for Cmax: po, orally 10 mg/kg by gavage; for AUC / AUC(0-inf) / half-life / clearance / Vd: intravenously 2 mg/kg or orally 10 mg/kg; for half-life: read-out: Half-life in blood (t1/2) (converted); for clearance: read-out: Observed clearance; for Vd: read-out: Volume of distribution (Vz)
Description: (§1) (S)-1-((2-(trifluoromethyl)phenyl)sulfonyl)piperidine-3-carboxylic acid was administered to male C57BI/6 mice intravenously (2 mg/kg) or orally (10 mg/kg) by gavage. Whole blood diluted with water was prepared from these dosed animals over a time course up to 24 hours post dose to allow blood concentrations of drug to be measured by UPLC-MS/MS.
as §1, with “(R)-1-((2-(trifluoromethyl)phenyl)sulfonyl)piperidine-3-carboxylic” for “(S)-1-((2-(trifluoromethyl)phenyl)sulfonyl)piperidine-3-carboxylic”

[3] = target: T2, CYP 2C9 (Homo sapiens, UniProt P11712); assay: CYP inhibition, E. coli CYPEX membranes with probe substrates; format: in vitro ADME
T2 construct: purchased CYPEX; host or cells: E. coli
Description: (§2) Using E. coli CYPEX membranes in combination with specific probe substrates, the inhibition of individual CYPs by (S)-1-((2-(trifluoromethyl)phenyl)sulfonyl)piperidine-3-carboxylic acid and (R)-1-((2-(trifluoromethyl)phenyl)sulfonyl)piperidine-3-carboxylic acid was assessed (see Weaver et al., 2003, Drug Metab Dispos 31:7, 955-966).

[4] = target: T3, CYP 1A2 (Homo sapiens, UniProt P05177); assay: as above; format: in vitro ADME
T3 construct: purchased CYPEX; host or cells: E. coli
T3 sequence (P05177 1-516): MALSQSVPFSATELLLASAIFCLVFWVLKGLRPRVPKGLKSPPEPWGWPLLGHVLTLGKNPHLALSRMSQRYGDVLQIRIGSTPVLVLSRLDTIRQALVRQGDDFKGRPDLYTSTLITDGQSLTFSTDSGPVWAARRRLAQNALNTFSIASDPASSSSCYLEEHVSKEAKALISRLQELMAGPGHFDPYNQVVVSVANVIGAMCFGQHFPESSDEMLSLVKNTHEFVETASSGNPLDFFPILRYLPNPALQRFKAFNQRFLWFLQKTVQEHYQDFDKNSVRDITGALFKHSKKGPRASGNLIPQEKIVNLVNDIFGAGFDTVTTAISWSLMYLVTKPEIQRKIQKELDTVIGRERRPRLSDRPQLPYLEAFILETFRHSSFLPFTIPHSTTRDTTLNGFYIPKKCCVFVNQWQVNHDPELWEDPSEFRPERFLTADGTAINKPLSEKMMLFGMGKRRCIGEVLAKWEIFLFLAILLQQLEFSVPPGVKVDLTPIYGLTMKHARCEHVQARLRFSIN
Description: as §2

[5] = target: T4, CYP 2C19 (Homo sapiens, UniProt P33261); assay: as above; format: in vitro ADME
T4 construct: purchased CYPEX; host or cells: E. coli
Description: as §2

[6] = target: T5, CYP 3A4 (Homo sapiens, UniProt P08684); assay: as above; format: in vitro ADME
T5 construct: purchased CYPEX; host or cells: E. coli
Description: as §2

[7] = target: T6, CYP 2D6 (Homo sapiens, UniProt P10635); assay: as above; format: in vitro ADME
T6 construct: purchased CYPEX; host or cells: E. coli
Description: as §2

[8] = Human hepatocyte stability; format: in vitro ADME; details: cryopreserved hepatocytes, mixed human hepatocyte suspension, 37° C.; for hepatocyte CLint: read-out: intrinsic clearance (CLint) in human hepatocytes
Description: The intrinsic clearance (CLint) and half-life of (S)-1-((2-(trifluoromethyl)phenyl)sulfonyl)piperidine-3-carboxylic acid and (R)-1-((2-(trifluoromethyl)phenyl)sulfonyl)piperidine-3-carboxylic acid were measured in a hepatocyte suspension of cryopreserved male C57BL6 mouse hepatocytes or a mixed hepatocyte suspension of cryopreserved human hepatocytes. Briefly, the compounds were incubated with hepatocyte suspensions at 37° C. over a time course and the remaining compound at each time point was assessed by mass spectrometry (UPLC-MS/MS). CLint in mouse hepatocytes was <3 μl/min/10^6 cells and in human hepatocytes was <3 μl/min/10^6 cells for both compounds.

T6 sequence (P10635 whole entry): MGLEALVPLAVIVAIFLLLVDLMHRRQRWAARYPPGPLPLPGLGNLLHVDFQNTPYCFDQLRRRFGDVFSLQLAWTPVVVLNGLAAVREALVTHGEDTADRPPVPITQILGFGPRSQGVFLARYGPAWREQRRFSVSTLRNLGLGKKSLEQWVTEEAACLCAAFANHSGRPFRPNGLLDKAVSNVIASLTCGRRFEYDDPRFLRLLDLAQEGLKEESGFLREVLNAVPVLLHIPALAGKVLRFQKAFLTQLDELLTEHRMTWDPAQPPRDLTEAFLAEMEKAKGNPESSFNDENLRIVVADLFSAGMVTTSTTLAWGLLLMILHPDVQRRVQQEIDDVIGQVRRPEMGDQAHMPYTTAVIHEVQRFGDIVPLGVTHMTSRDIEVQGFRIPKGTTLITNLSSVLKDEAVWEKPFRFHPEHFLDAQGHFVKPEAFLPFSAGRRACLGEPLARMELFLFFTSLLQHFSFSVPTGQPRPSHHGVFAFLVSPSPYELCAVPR
T5 sequence (P08684 whole entry): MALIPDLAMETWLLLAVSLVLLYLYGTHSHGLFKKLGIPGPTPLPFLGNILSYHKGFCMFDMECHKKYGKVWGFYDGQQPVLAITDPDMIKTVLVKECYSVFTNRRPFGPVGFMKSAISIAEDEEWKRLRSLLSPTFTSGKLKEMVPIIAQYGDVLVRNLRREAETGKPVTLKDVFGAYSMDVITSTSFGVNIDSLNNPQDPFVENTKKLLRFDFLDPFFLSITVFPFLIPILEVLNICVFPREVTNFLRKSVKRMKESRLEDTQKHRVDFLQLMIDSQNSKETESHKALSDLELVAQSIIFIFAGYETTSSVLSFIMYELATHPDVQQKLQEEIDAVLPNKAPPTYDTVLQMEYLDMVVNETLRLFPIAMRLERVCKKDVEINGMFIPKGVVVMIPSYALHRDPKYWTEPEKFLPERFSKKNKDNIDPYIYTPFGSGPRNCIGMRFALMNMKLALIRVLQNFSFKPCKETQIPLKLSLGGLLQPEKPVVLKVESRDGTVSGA
T1 sequence (P01009 25-418 S77F): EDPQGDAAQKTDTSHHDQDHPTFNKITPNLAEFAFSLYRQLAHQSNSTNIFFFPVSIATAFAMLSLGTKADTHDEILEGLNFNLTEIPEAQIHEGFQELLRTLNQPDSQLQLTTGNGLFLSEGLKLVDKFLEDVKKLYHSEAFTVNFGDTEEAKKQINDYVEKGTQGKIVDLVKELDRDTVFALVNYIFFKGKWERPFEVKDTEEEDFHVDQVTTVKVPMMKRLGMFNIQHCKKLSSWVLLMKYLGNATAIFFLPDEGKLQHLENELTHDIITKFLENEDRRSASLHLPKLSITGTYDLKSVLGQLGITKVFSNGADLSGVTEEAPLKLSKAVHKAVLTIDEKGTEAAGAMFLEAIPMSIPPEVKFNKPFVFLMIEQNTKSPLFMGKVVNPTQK
T4 sequence (P33261 whole entry): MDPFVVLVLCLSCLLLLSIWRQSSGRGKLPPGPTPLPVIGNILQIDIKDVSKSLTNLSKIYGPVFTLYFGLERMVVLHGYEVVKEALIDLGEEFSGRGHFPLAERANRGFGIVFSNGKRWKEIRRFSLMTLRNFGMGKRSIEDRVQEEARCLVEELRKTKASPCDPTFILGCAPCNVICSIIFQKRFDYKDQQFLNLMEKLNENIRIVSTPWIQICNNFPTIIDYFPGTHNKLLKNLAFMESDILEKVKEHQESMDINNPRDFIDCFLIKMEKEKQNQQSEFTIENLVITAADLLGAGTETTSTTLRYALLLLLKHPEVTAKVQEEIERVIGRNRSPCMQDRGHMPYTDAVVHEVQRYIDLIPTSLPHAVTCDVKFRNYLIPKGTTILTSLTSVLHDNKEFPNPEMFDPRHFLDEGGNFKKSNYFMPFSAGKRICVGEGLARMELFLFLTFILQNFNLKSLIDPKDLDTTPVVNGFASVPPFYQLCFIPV
T2 sequence (P11712 whole entry): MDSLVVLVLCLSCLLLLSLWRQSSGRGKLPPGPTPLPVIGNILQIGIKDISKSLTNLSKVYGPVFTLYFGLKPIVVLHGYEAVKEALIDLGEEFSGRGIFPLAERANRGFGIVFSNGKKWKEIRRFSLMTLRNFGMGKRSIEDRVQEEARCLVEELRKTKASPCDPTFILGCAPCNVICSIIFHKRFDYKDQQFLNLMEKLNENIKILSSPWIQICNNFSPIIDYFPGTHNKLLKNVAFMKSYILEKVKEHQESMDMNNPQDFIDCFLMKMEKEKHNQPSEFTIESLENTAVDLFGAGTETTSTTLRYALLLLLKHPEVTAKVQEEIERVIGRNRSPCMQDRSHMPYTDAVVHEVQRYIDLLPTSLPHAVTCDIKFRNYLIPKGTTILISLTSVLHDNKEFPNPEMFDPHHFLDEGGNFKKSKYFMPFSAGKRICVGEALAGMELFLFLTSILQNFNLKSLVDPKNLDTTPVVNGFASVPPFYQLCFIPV

SMILES | secretion of human Siiyama A1AT into cell supernatant [1] | Cmax [2] [ng/mL] | AUC [2] [ng·h/mL] | AUC(0-inf) [2] [ng·h/mL] | half-life [2] [h] | clearance [2] [mL/min/kg] | Vd [2] [L/kg] | pIC50 [3] | pIC50 [4] | pIC50 [5] | pIC50 [6] | pIC50 [7] | half-life [8] [h] | hepatocyte CLint [8] [µL/min/1e6 cells] | AUC lower than S enantiomer ([2]; mice, Examples 7 and 8) [fold] | t½ shorter than S enantiomer ([2]; mice, Examples 7 and 8) [fold]
O=C(O)[C@H]1CCCN(S(=O)(=O)c2ccccc2C(F)(F)F)C1 [(S)-1-((2-(Trifluoromethyl)phenyl)sulfonyl)piperidine-3-carboxylic acid] | does not stimulate secretion of human Siiyama A1AT | 33500 | 54200 | 54400 | 1.2 | 4.7 | 0.49 | < 4.30 | < 4.30 | < 4.30 | < 4.30 | < 4.30 | > 7.67 | < 3 | – | –
O=C(O)[C@@H]1CCCN(S(=O)(=O)c2ccccc2C(F)(F)F)C1 [(R)-1-((2-(Trifluoromethyl)phenyl)sulfonyl)piperidine-3-carboxylic acid] | does not stimulate secretion of human Siiyama A1AT | 15600 | 24200 | 24700 | 0.54 | 8.2 | 0.38 | < 4.30 | < 4.30 | < 4.30 | < 4.30 | < 4.30 | > 7.67 | < 3 | 2.2 | 2.2

— patent US12673050B2, “Compositions and their use for the treatment of A1-antitrypsin deficiency” (Centessa Pharmaceuticals (UK) Limited, priority 2021, dated 2026)
